In US9339458B2, “Use of vaginal insulin sensitizing agents” (ITF RESEARCH PHARMA, S.L.U., priority 2009, dated 2016):

Key:
[1] = test system: non-insulin dependent model for polycystic ovary syndrome (PCOS) induced by dehydroepiandrosterone (DHEA) in rats; test: Concentration of testosterone in plasma, DHEA-induced PCOS model in rats; type: in vivo, Sprague-Dawley rats
Experimental: (§1) The study objective was to assess the effect of metformin in a non-insulin dependent model for polycystic ovary syndrome (PCOS) induced by dehydroepiandrosterone (DHEA) in rats.
(§2) The formulations to be tested were: • Gels with Metformin at a concentration of 2 mg/mL (FT-147), 20 mg/mL (FT-148) and 200 mg/mL (FT-149). • Gel without Metformin (Placebo; FT-150).
(§3) Female 2-3 weeks-old Sprague-Dawley rats were used.
(§4) Four experimental groups with 8 animals each were used in the study: • Group A: Control=Placebo+DHEA • Group B: Dose 1 Trial Substance (0.016 mg/animal)+DHEA • Group C: Dose 2 Trial Substance (0.16 mg/animal)+DHEA • Group D: Dose 3 Trial Substance (1.6 mg/animal)+DHEA
Each animal's dose was calculated based on the concentration of each formulation and the administration volume: • Dose 1: formulation of 2 mg/mL with administration of 8 μl/animal=0.016 mg/animal • Dose 2: formulation of 20 mg/mL with administration of 8 μl/animal=0.16 mg/animal • Dose 3: formulation of 200 mg/mL with administration of 8 μl/animal=1.6 mg/animal […]
Plasma was obtained from each blood sample by centrifugation at 5000 g for 5 minutes, which was frozen for later assessment (quantitative determinations) of testosterone levels by rat-specific commercial immunoassay kits (EIA).
Testosterone concentrations in the plasma samples from all animals were determined at the end of the study (Day 15).

[2] = test system: non-insulin dependent model for polycystic ovary syndrome (PCOS) induced by dehydroepiandrosterone (DHEA) in rats; test: Histological assessment of ovaries (no. of atretic follicles), DHEA-induced PCOS model in rats; type: in vivo, Sprague-Dawley rats
Experimental: as §1, §2, §3, §4
Each animal's dose was calculated based on the concentration of each formulation and the administration volume: • Dose 1: formulation of 2 mg/mL with administration of 8 μl/animal=0.016 mg/animal • Dose 2: formulation of 20 mg/mL with administration of 8 μl/animal=0.16 mg/animal • Dose 3: formulation of 200 mg/mL with administration of 8 μl/animal=1.6 mg/animal
The trial substance (doses of 0.016, 0.16 and 1.6 mg/animal) and the control substance were administered intravaginally as an aqueous gel at a volume of 8 μl/animal.
The DHEA solution was prepared in a sesame seed oil prior to administration and was injected subcutaneously in a skin fold in the posterior thoracic area (dorsal) at a volume of 0.2 mL. […]

## CN(C)C(=N)NC(=N)N [metformin, N,N-dimethylimidodicarbonimidic diamide]
[1]; high dose, intravaginal
  Testosterone plasma levels versus control group: very significant reduction
[1]; vaginal administration
  Plasma levels of testosterone: significantly decreases
[2]; intermediate dose, intravaginal
  Number of atretic follicles versus control group: significant reduction
[2]; vaginal administration
  Number of atretic follicles in the polycystic ovaries: a decrease
